Structures can show the parent of a compound that is named as a salt.
What was measured:
human factor-Xa = target: T1, human factor-Xa (Homo sapiens, UniProt P00742); test: Determination of anti-factor Xa activity (S-2222 coloring substrate, absorbance at 405 nm); format: biochemical; conditions: human factor-Xa 0.25 unit/ml, S-2222 0.4 mM, Tris buffer pH 8.4, room temperature, 5 minutes; read-out: Inhibitory Action against Factor Xa Activity (IC50 (nM))
T1 construct: purchased Cosmobio Co., Ltd
T1 sequence (P00742 235-488 limits assumed): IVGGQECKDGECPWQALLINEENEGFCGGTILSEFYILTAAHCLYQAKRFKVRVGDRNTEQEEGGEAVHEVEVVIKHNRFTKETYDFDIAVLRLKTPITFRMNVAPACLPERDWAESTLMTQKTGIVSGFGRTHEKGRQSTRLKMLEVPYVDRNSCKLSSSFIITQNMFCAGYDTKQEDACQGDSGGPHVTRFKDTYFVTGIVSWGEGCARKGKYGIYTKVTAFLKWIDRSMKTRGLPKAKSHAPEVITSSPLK
T1 sequence (P00742 41-179 partner limits assumed): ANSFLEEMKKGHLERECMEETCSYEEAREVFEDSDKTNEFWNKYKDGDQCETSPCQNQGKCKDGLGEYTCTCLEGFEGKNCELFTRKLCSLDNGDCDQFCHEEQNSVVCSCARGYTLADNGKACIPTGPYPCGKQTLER
Description: Determination of Anti-factor Xa Activity
Anti-factor Xa activity was determined according to methods described by Hara et al. [Thrombo. Haemost., 71, 314 (1994)], which were slightly modified. S-2222, a coloring substrate (0.4 mM, Daiichi Pure Chemicals Co., Ltd.) and the test compounds were mixed in Tris hydrochloride buffered solution (50 mM, pH: 8.4) containing NaCl (0.9%). To this solution, human factor-Xa (0.25 unit/ml, Cosmobio Co., Ltd.) was added and the reaction was started. In the control group, distilled water was added to the Tris-buffered solution instead of the test compound. The reaction mixture (in total: 0.1 ml) was incubated at room temperature for 5 minutes. Optical absorbance of the reaction mixture was continuously determined at 405 nm with a 96-well microplate reader (Model 550, Biorad) and increase in the absorbance for 5 minutes was calculated as an indicator of factor Xa activity. To assess anti-factor Xa activities of the test compounds, concentrations of the test compounds to inhibit the factor Xa activity by 50% (IC50) were calculated.

bovine trypsin = target: T2, bovine trypsin (Bos taurus, UniProt P00760); test: Determination of anti-trypsin activity (S-2222 coloring substrate, absorbance at 405 nm); format: biochemical; conditions: bovine trypsin 0.25 μg-protein/ml, S-2222 0.4 mM, Tris buffer pH 8.4, room temperature, 5 minutes; read-out: Inhibitory Action against Trypsin Activity (IC50 (nM))
T2 construct: purchased Sigma
T2 sequence (P00760 24-246): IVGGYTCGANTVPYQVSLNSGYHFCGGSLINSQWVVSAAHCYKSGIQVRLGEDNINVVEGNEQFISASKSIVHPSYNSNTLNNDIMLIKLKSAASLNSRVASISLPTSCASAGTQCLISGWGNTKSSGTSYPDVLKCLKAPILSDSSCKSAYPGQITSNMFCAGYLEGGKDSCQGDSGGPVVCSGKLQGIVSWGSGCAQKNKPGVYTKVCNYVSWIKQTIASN
Description: Determination of Anti-trypsin Activity
Anti-trypsin activity was determined according to methods described by Taniuchi et al. [Thromb. Haemost., 79, 543 (1998)], which were partially modified. S-2222, a coloring substrate (5 μl, final concentration: 0.4 mM, Daiichi Pure Chemicals Co., Ltd.) and the test compound (5 μl) were mixed with Tris hydrochloride buffered solution (50 mM, 85 μl, pH: 8.4) containing NaCl (0.9%). To this solution, bovine trypsin (5 μl, final concentration: 0.25 μg-protein/ml, Sigma) was added and the reaction was started. In the control group, distilled water was added to the Tris-buffered solution instead of the test compound. The reaction mixture (in total: 0.1 ml) was incubated at room temperature. Optical absorbance was continuously determined at 405 nm with a 96-well microplate reader (Model 550, Biorad) and increase in the absorbance for 5 minutes was calculated as an indicator of trypsin activity. To assess anti-trypsin activities of the test compounds, concentrations of the test compounds to inhibit the trypsin activity by 50% (IC50) were calculated.

Row | SMILES | IC50 (human factor-Xa) | IC50 (bovine trypsin)
1 | N=C(N)c1cccc(/C=C/CN(c2ccc(OC3CCN(C4=NCCC4)CC3)c(Cl)c2)S(=O)(=O)CC(=O)O)c1 [Example 54, N-[3-(3-Amidinophenyl)-2-(E)-propenyl]-N-[3-chloro-4-[1-(4,5-dihydro-3H-pyrrol-2-yl)piperidin-4-yloxy]phenyl]sulfamoylacetic acid dihydrochloride] | 7 nM | 2200 nM
2 | N=C(N)c1cccc(/C=C/CN(c2ccc(OC3CCN(C4=NCCC4)CC3)cc2)S(=O)(=O)CC(=O)O)c1 [Example 60, N-[3-(3-Amidinophenyl)-2-(E)-propenyl]-N-[4-[1-(4,5-dihydro-3H-pyrrol-2-yl)piperidin-4-yloxy]phenyl]sulfamoylacetic acid dihydrochloride] | 14 nM | 3100 nM
3 | CCOC(=O)CS(=O)(=O)N(C/C=C/c1cccc(C(=N)N)c1)c1ccc(OC2CCN(C3=NCCC3)CC2)c(C(F)(F)F)c1 [Example 77, Ethyl N-[3-(3-amidinophenyl)-2-(E)-propenyl]-N-[4-[1-(4,5-dihydro-3H-pyrrol-2-yl)piperidin-4-yloxy]-3-trifluoromethylphenyl]sulfamoylacetate dihydrochloride] | 12 nM | 3700 nM
4 | N=C(N)c1cccc(/C=C/CN(c2ccc(OC3CCN(C4=NCCC4)CC3)c(C(F)(F)F)c2)S(=O)(=O)CC(=O)O)c1 [Example 78, N-[3-(3-Amidinophenyl)-2-(E)-propenyl]-N-[4-[1-(4,5-dihydro-3H-pyrrol-2-yl)piperidin-4-yloxy]-3-trifluoromethylphenyl]sulfamoylacetic acid dihydrochloride] | 11 nM | 5300 nM
5 | N=C(N)c1cccc(/C=C/CN(c2ccc(OC3CCN(C4=NCCO4)CC3)c(Cl)c2)S(=O)(=O)CC(=O)O)c1 [Example 89, N-[3-(3-Amidinophenyl)-2-(E)-propenyl]-N-[3-chloro-4-[1-(4,5-dihydrooxazol-2-yl)piperidin-4-yloxy]phenyl]sulfamoylacetic acid dihydrochloride] | 11 nM | 2000 nM

Other lines, results leading:

Row | IC50 (human factor-Xa) | IC50 (bovine trypsin) | SMILES
6 | 6.3 nM | 1200 nM | CCC(=N)N1CCC(Oc2ccc(N(C/C=C/c3cccc(C(=N)N)c3)S(=O)(=O)CC(=O)O)cc2Cl)CC1 [Example 50, N-[3-(3-Amidinophenyl)-2-(E)-propenyl]-N-[3-chloro-4-[1-(1-iminopropyl)piperidin-4-yloxy]phenyl]sulfamoylacetic acid dihydrochloride]
7 | 6.8 nM | 2100 nM | CCOC(=O)CS(=O)(=O)N(C/C=C/c1cccc(C(=N)N)c1)c1ccc(OC2CCN(C3=NCCC3)CC2)c(Cl)c1 [Example 53, Ethyl N-[3-(3-amidinophenyl)-2-(E)-propenyl]-N-[3-chloro-4-[1-(4,5-dihydro-3H-pyrrol-2-yl)piperidin-4-yloxy]phenyl]sulfamoylacetate dihydrochloride]
8 | 12 nM | 2300 nM | CCOC(=O)CS(=O)(=O)N(C/C=C/c1cccc(C(=N)N)c1)c1ccc(OC2CCN(C3=NCCC3)CC2)c(C)c1 [Example 65, Ethyl N-[3-(3-amidinophenyl)-2-(E)-propenyl]-N-[4-[1-(4,5-dihydro-3H-pyrrol-2-yl)piperidin-4-yloxy]-3-methylphenyl]sulfamoylacetate dihydrochloride]
9 | 8.3 nM | 5600 nM | Cc1cc(N(C/C=C/c2cccc(C(=N)N)c2)S(=O)(=O)CC(=O)O)ccc1OC1CCN(C2=NCCC2)CC1 [Example 66, N-[3-(3-Amidinophenyl)-2-(E)-propenyl]-N-[4-[1-(4,5-dihydro-3H-pyrrol-2-yl)piperidin-4-yloxy-]-3-methylphenyl]sulfamoylacetic acid dihydrochloride]
10 | 9.8 nM | 4400 nM | N=C(N)c1cccc(/C=C/CN(c2ccc(OC3CCN(C4=NCCC4)CC3)c(C(N)=O)c2)S(=O)(=O)CC(=O)O)c1 [Example 72, N-[3-(3-Amidinophenyl)-2-(E)-propenyl]-N-[3-carbamoyl-4-[1-(4,5-dihydro-3H-pyrrol-2-yl)piperidin-4-yloxy]phenyl]sulfamoylacetic acid dihydrochloride]
11 | 13 nM | 3500 nM | CC/N=C/N1CCC(Oc2ccc(N(C/C=C/c3cccc(C(=N)N)c3)S(=O)(=O)CC(=O)O)cc2Cl)CC1 [Example 87, N-[3-(3-Amidinophenyl)-2-(E)-propenyl]-N-[3-chloro-4-[1-(N-ethylformimidoyl)piperidin-4-yloxy]phenyl]sulfamoylacetic acid dihydrochloride]
